Patent publication US11779597B2, “Method of treating Parkinson's and other neurodegenerative diseases” (Vector Vitale IP LLC, priority 2019, dated 2023)
Marks after values point to notes of the source that are not given here.

Experiments:
[1] = Body weight in LPS rat models of parkinsonism; format: in vivo; settings: for body weight: in g (unit assumed)
Protocol: On the 1st day of the experiment, rats were either operated to model hemi-parkinsonism or sham operated. From the 9th to the 18th day of the experiment, the animals were injected either deuterium-depleted water or the test substance, according to their allocation into groups, for 10 days. On the 8th day of the experiment (before initiation of treatment—apomorphine test I) and on the 21st day of the experiment (after the end of administering the test substance —apomorphine test II) the animals underwent an apomorphine test to analyze the development of hemi-parkinsonism which correlates with the number of destroyed dopaminergic neurons. In addition, a follow-up analysis of fecal water content was carried out, i.e., before the start of treatment on the 8th day after the operation, as well as on the 21st (after the end of treatment) and the 28th day (before autopsy). On the 24th day of the experiment, behavioral tests were carried out in all groups. All animals were weighed before autopsy. During autopsy, ⅔ of animals from each group were sacrificed by cervical dislocation and brain and blood samples were collected for further biochemical and immunological tests. ⅓ of the animals were used for further immunohistochemical studies of the brain; for this purpose, under anesthesia, a procedure of fast, controlled and uniform fixation of the whole body of the animal was performed using 4% paraformaldehyde perfused through the heart of the rat to obtain the best preservation of the brain architecture for immunohistochemistry. Gage G J, et al., J Vis Exp. 2012 Jul. 30; (65).

Water content of feces = format: in vivo; settings: LPS rat models; administration during 10 days
Protocol: Feces were collected on the 8th, 21st and 28th days of the experiment. They were weighed (wet weight mww) and dried in a thermostat at t=60° C. for 24 hours and then weighed again (dry weight mdw). The water content of feces (M) was calculated as the percentage difference between wet and dry weight of feces according to the following formula: M=100−(mdw×100%/mww).
On the 1st day of the experiment, rats were either operated to model hemi-parkinsonism or sham operated. From the 9th to the 18th day of the experiment, the animals were injected either deuterium-depleted water or the test substance, according to their allocation into groups, for 10 days. On the 8th day of the experiment (before initiation of treatment—apomorphine test I) and on the 21st day of the experiment (after the end of administering the test substance —apomorphine test II) the animals underwent an apomorphine test to analyze the development of hemi-parkinsonism which correlates with the number of destroyed dopaminergic neurons. In addition, a follow-up analysis of fecal water content was carried out, i.e., before the start of treatment on the 8th day after the operation, as well as on the 21st (after the end of treatment) and the 28th day (before autopsy). On the 24th day of the experiment, behavioral tests were carried out in all groups. All animals were weighed before autopsy. […]

peritoneal macrophages = experiment: Metabolic profile of nonsensitized mouse peritoneal macrophages in vitro; format: cell-based, mice of c57/B6 line; design: spontaneous production of reactive nitrogen species by PM: dose or concentration left out as unconfirmed
Protocol: Materials and methods: Peritoneal macrophages (PM) were isolated from the peritoneal cavity of male mice of c57/B6 line with an average body weight of 22 g without previous sensibilization. The metabolic profile of phagocytes was characterized by the arginine metabolic pathway (by the levels of arginase activity and NO synthesis measured using photocolorimetric methods), the level of formation of intracellular reactive oxygen species (ROS) by esterases and phagocytic activity measured using flow cytometry as well as the levels of NADH and NADPH oxidase activation, as determined in the NBT test. Duration of treatment of a standardized suspension of nonsensitized macrophages from the peritoneal cavity varied depending on the methodological characteristics of metabolic response. A 90 minute exposure to the drugs according to Kim D K, Pfeifer J. Surg Forum. 1977; 28:85-7 was used to analyze their effects on oxidative metabolism and phagocytic activity. An 18 hour exposure according to Lastra M D, et al., J Trace Elem Med Biol. 2001; 15(1):5-10 was used to analyze the effects on arginine metabolic pathway. To analyze the effects of the drugs under study on the induced (stimulated) metabolic activity of phagocytes, the cells were treated with lipopolysaccharide (LPS) from E. coli (Sigma, USA) according to Haddad J J. Mol Immunol. 2009; 47(2-3):205-14. doi: 10.1016/j.molimm.2009.09.034.

[2] = system: LPS rat models of Parkinson's disease; experiment: Pick-up test; format: in vivo; settings: group V (LPS+^64Zn-asp) versus group IV (LPS)
Text: The pick-up test is a test for increased irritability. The animal is picked up by grasping around the body. Responses were scored as 1, very easy; 2, easy with vocalizations; 3, some difficulty, the rat rears and faces the hand; 4, the rat freezes (with or without vocalization); 5, difficult, the rat avoids the hand by moving away; and 6, very difficult, the rat behaves defensively, and may attack the hand.
On the 1st day of the experiment, rats were either operated to model hemi-parkinsonism or sham operated. From the 9th to the 18th day of the experiment, the animals were injected either deuterium-depleted water or the test substance, according to their allocation into groups, for 10 days. […] On the 24th day of the experiment, behavioral tests were carried out in all groups.

microglia = experiment: Functional profile of microglia in 6-OHDA rat models after prophylactic administration; format: in vivo; settings: prophylactic i.p.
Protocol: Methods: Adult mature rodents were used in the study. […] Before prophylactic administration of the experimental drugs, the animals underwent an open field test to assay their general locomotor activity levels and anxiety. The prophylactic course consisted of 10 daily intraperitoneal injections of the drugs (in the case of combination drug, its components were administered at an interval of 2 hours). After the end of prophylactic course, Parkinson's disease was modelled in the animals. […] Ten days after the last (second) apomorphine test, the animals' behavioral responses were assessed in the open field test followed by euthanasia and analysis of functional (metabolic and phenotypic) profiles of phagocytes of different localization. Thus, the study of the functional profile of phagocytes in rat models of Parkinson's disease was performed on day 28 after the end of the course of prophylactic treatment with the experimental drugs. Resident peritoneal macrophages were isolated from sterile cell suspension of peritoneal exudate; enrichment of the suspension was carried out by 2-hour adhesion. Non-adherent and dead cells were separated by centrifugation. Functional characteristics of circulating phagocytes (monocytes and neutrophils) were evaluated in whole blood taken into a tube containing EDTA used as an anticoagulant. Mononuclear and polymorphonuclear phagocytes were analyzed on a flow cytofluorimeter using a gating method. Phagocytes of microglia were isolated using a Percoll density gradient. To assess the phenotypic profile of phagocytes, expression indices of the pan-phagocytic marker CD14 (co-receptor of the bacterial lipopolysaccharide) and the marker of alternative polarization of phagocytes CD206 (mannose receptor 1) were used. To characterize the metabolic profile, oxidative metabolism and phagocytic activity of microglia as well as the pathway of arginine metabolism were studied using flow cytometry and spectrometric methods respectively. FITC-labeled Staphylococcus aureus Wood 46 was used as the object of phagocytosis. The hemogram parameters were analyzed on the hematological analyzer Particle counter model PCE 210 (ERMA, Japan) adapted for the study of blood cells of rats and mice.

## ^64Zn-enriched zinc aspartate [^64Zne-asp]
[1]; 1st day
  body weight: 193.78 ± 22.21
[1]; 28th day
  body weight: 219.8 ± 18.31
[1]; between 1st and 28th day
  body weight changes, %: 13* %
[1]; day 28 versus day 1 and versus LPS + deuterium-depleted water, listed as 64Zn-asp
  body weight of LPS rat models (in words): statistically significant increase
Water content of feces
  water content of feces: did not cause any significant changes
Peritoneal macrophages; 10 μg/ml, 90 min
  ROS generation compared with LPS treatment: more expressive stimulation
Peritoneal macrophages; 18-hour exposure
  NO synthesis by bacterial LPS-stimulated PM: statistically significant reduction
  spontaneous production of reactive nitrogen species by PM: statistically significant inhibition
Peritoneal macrophages; 18-hour treatment
  arginase activity of PM: multidirectional weak effect
Peritoneal macrophages; 90 min exposure
  phagocytic activity of nonsensitized PM: did not have a significant effect
Peritoneal macrophages; 90 min treatment
  spontaneous and LPS-stimulated ROS production by macrophages: moderate stimulating effect
  spontaneous or induced activation of NADH and NADPH oxidases (NBT test): did not have a statistically significant effect
[2]
  irritation in the pick-up test: statistically significant elevation
microglia
  level of CD14 expression in microglia: increase
  level of CD206 expression in microglia: increase
  oxidative metabolism / ROS production of microglia versus intact animals: at the level of control intact animals
  oxidative metabolism of microglia, higher than in control rat models of Parkinson's disease: twice
